In publication PMC4491811, “Force-induced chemical reactions on the metal centre in a single metalloprotein molecule” (Nature Communications, 2015):

Target: T1, rubredoxin (RD), in polyprotein (RD-GB1)n (Pyrococcus furiosus, UniProt P24297)
T1 construct: gene rub; full-length ferric (FeS4) rubredoxin fused to GB1 fingerprint domain, His-tag purified from E. coli DH5alpha, linked by BM(PEO)3 thiol-maleimide coupling into (RD-GB1)n
T1 sequence (P24297 2-54): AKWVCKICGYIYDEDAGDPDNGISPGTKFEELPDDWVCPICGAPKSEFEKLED
Assay: single-molecule AFM force clamp, FeS4 rupture rate against [KSCN]
Assay type: binding
Conditions: pH 7.4, 100 mM Tris and NaCl, KSCN 5-800 mM; ferric-thiolate bond rupture rate extrapolated to zero force (Bell-Evans); FeS4 centre exposed by force-induced partial unfolding; not an affinity

Compound: N#CS [SCN^−]
- k (second-order rate constant of ligand substitution): 0.36 M⁻¹ s⁻¹
